We go through 9 molecules from article PMC7442255, “Characterization of the Corynebacterium glutamicum dehydroshikimate dehydratase QsuB and its potential for microbial production of protocatechuic acid” (PLoS ONE, 2020).

For one data set, the target named is QsuB (Corynebacterium glutamicum, UniProt Q8NT86). Put plainly: DSD activity assay of purified QsuB (3,4-DHBA formation at 290 nm). It counts as biochemical.
For the next data set, the target named is N-QsuB (Corynebacterium glutamicum, UniProt Q8NT86). As to the kind of experiment: DSD activity assay of purified N-QsuB (N-terminal domain of QsuB). Format: biochemical.
The next data set relates to QsuB C-terminal domain. As to the kind of experiment: Test of dioxygenase activity of the C-terminal domain towards 3,4-DHBA (UV spectrum). The following applies: pH 7.5, incubation with QsuB up to 60 min. It counts as biochemical, Corynebacterium glutamicum. As to the method: An inhibition type and inhibition constants of the enzyme reaction were determined by a graphical method. The experimental data were plotted as (Vmax–v)/v versus the inhibitor concentration (0 ‒ 0.4 mM 3,4-DHBA) at 0.5/ 1/ 1.5 mM concentrations of DHS, where Vmax and v represented the maximal velocity and the velocity in the absence and presence of inhibitor with given concentrations of the substrate, respectively. The dioxygenase activity of the C-terminal domain was tested with the crude extracts in the reaction mixture of 0.1 M Tris/HCl buffer (pH 7.5), 10 mM MgCl2, 0.1 mM DHBA, and 30 nM of overall protein.
Thus, a possible activity of the C-terminal domain leading to conversion of 3,4-DHBA into another product was not detected under our experimental conditions.

The subject of another data set is C. glutamicum. As to conditions: cited from earlier work.
The subject of a further data set is E. coli. As to conditions: cited from earlier work.
Another data set has as its system QuiC1. Also on record: method as in PMID 27706847. The following applies: cited from earlier work.
A further data set has as its system AsbF B. t. 97-27. Also noted: method as in PMID 18975921. The following applies: pH 8.6, 37°C ref [12], cited from earlier work.
The target of data set [1] is N-QsuB, N-terminal domain of QsuB (Corynebacterium glutamicum). Put plainly: SEC; Superose 6 Increase 10/300 GL; 50 mM sodium phosphate (pH 7.0), 150 mM NaCl; 0.5 ml/min; A280; mass from a calibration curve of standard proteins; self-association of N-QsuB.
For data set [2], the target named is QsuB, dehydroshikimate dehydratase (DSD) from Corynebacterium glutamicum (Corynebacterium glutamicum). As to the kind of experiment: SEC; Superose 6 Increase 10/300 GL; 50 mM Tris-HCl (pH 7.5), 500 mM NaCl, 5% v/v glycerol; 0.4 ml/min; A280; mass from a calibration curve of standard proteins; self-association of QsuB. On the technique in general: SEC sorts molecules by how far they enter the pores of the column.

Substrate in data set [3]: O=C(O)C1=CC(=O)C(O)C(O)C1
Put plainly: DSD activity assay of purified N-QsuB (N-terminal domain of QsuB). It counts as biochemical, Corynebacterium glutamicum. The following applies: other: N-QsuB, pH 7.5, 20°C.

Setting [4] is: QsuB, 1 mM DHS, 10 mM metal salt, normalized against cobalt.
Where [5] appears, read: N-QsuB, 1 mM DHS, 10 mM metal salt, normalized against cobalt.

Where “and” joins values, the source holds several entries; their conditions need not be identical. Equal values may be shown once. Read-outs that look alike come from different tables or passages of the source.

QsuB, sequence (Q8NT86 entry or part of it): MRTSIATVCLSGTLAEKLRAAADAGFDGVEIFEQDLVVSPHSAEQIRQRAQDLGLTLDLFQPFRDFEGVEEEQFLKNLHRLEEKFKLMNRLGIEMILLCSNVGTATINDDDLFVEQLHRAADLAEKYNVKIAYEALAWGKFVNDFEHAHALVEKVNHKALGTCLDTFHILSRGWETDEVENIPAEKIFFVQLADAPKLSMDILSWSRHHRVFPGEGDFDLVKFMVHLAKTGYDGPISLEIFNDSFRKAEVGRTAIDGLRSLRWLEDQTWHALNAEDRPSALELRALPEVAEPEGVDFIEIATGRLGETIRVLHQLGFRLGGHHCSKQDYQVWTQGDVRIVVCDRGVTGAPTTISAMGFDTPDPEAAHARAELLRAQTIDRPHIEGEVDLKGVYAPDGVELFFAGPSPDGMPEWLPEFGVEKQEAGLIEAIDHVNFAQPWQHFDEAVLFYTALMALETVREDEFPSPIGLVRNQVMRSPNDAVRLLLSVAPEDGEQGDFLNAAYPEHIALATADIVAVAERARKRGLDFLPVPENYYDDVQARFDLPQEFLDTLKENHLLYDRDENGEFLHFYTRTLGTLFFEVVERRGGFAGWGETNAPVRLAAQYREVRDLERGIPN

In the case of `O=C(O)c1ccc(O)c(O)c1` [3,4-DHBA, 3,4-dihydroxybenzoic acid], the inhibition type entry is on record as “mix inhibition type” on QsuB (QsuB, quotient velocity plot) and “noncompetitive inhibition” against N-QsuB (N-QsuB, quotient velocity plot). For the same molecule, the “Ki' (binding to the enzyme-substrate complex)” value at QsuB (QsuB, quotient velocity plot, 0.5/1/1.5 mM DHS) is listed as ~ 0.96 mM. Moreover, the Ki (as a rule, the dissociation constant of the complex between target and ligand, obtained from inhibition or displacement) on QsuB (QsuB, quotient velocity plot, 0.5/1/1.5 mM DHS, read-out: Ki (binding to the enzyme)) is approximately 0.38 mM; on N-QsuB (N-QsuB, quotient velocity plot, 0.5/1/1.5 mM DHS, read-out: Ki (binding to the enzyme)), approximately 0.69 mM. The “conversion of 3,4-DHBA (change of UV spectrum)” value with QsuB C-terminal domain is reported as “no difference in the UV spectrum was observed”.
With `[Cl-].[Cl-].[Co+2]` [Co, CoCl2], the “Specific activity (relative DSD activity with divalent metal)” value at QsuB and at N-QsuB was 100% each time. Further, the “Co^2+ concentration at which growth is possible” value in the data set on C. glutamicum is 2 mM. For the same molecule, in the data set on E. coli, the “Co^2+ concentration tolerated” value is listed as less than 1 mM.
With `O=C(O)C1=CC(=O)C(O)C(O)C1` (stereo not shown) [DHS, 3-dehydroshikimic acid], the kcat – broadly, the maximal rate divided by the concentration of active sites – on QsuB (QsuB, substrate DHS, pH 7.5, 20°C) was 60.8 ± 0.9 s⁻¹; in the data set with QuiC1 (QuiC1, substrate DHS, pH 7.5, 25°C ref [15]) it was 163.6 ± 8.5 s⁻¹; in the data set with AsbF B. t. 97-27 (substrate DHS), 3.6 ± 0.2 s⁻¹. The half-inhibitory concentration (IC50) – broadly, the concentration that inhibits the measured activity by half – on QsuB (QsuB, substrate inhibition, calculated from data of Fig 6, read-out: IC50 (decrease of DSD activity by substrate DHS)) is approximately 4.2 mM; on N-QsuB (N-QsuB, substrate inhibition, calculated from data of Fig 6, read-out: IC50 (decrease of DSD activity by substrate DHS)), approximately 5.5 mM. In addition, the Km (usually the concentration of substrate that gives half-maximal velocity) is 331 ± 51 µM in the data set with QuiC1 (QuiC1, pH 7.5, 25°C ref [15], read-out: Km (DHS)) and 125 ± 14 µM with AsbF B. t. 97-27 (read-out: Km (DHS)).
With `O=C(O)CN(CCN(CC(=O)O)CC(=O)O)CC(=O)O` [EDTA], the “effect on DSD activity without added metal ions” value at QsuB and at N-QsuB was “inhibited” in each case.
On to `[Cl-].[Cl-].[Mg+2]` [Mg, MgCl2], for which the entries for the “Specific activity (relative DSD activity with divalent metal)” value on QsuB (setting [4]) and at N-QsuB (setting [5]) were 24% and 22%, respectively.
Consider `[Cl][Mn][Cl]` [Mn, MnCl2], for which the “Specific activity (relative DSD activity with divalent metal)” value on QsuB (setting [4]) came to 17%; on N-QsuB (setting [5]), 21%.
Consider “N-QsuB, N-terminal domain of QsuB (domain or fragment)”, for which the stoichiometry N (commonly the number of molecules, sites or subunits per partner or assembly) in data set [1] worked out at 2.
In the case of “QsuB, dehydroshikimate dehydratase (DSD) from Corynebacterium glutamicum (enzyme)”, in data set [2], the percent present as monomers was determined as 15%; the percent present as octamers stood at 60%; the percent present as tetramers worked out at 25%; the stoichiometry N was 8 and 4.

B1: N-QsuB (Corynebacterium glutamicum ATCC 13032) (protein)
chain: MRTSIATVCLSGTLAEKLRAAADAGFDGVEIFEQDLVVSPHSAEQIRQRAQDLGLTLDLFQPFRDFEGVEEEQFLKNLHRLEEKFKLMNRLGIEMILLCSNVGTATINDDDLFVEQLHRAADLAEKYNVKIAYEALAWGKFVNDFEHAHALVEKVNHKALGTCLDTFHILSRGWETDEVENIPAEKIFFVQLADAPKLSMDILSWSRHHRVFPGEGDFDLVKFMVHLAKTGYDGPISLEIFNDSFRKAEVGRTAIDGLRSLRWLEDQTWHALNAEDRPSALELRALPEVAEPEGVDF
On to B1, for which, in data set [3], the Km came out at 473 ± 71 µM; the turnover number (kcat) was 23.4 ± 0.4 s⁻¹; the catalytic efficiency (kcat/Km) – broadly, the second-order rate constant that governs catalysis at low substrate concentration – is 49500 ± 5600 M⁻¹ s⁻¹.
